Measured values taken from patent US20150225341A1, “PHARMACEUTICALLY ACCEPTABLE SALTS OF THYMODEPRESSIN AND PROCESSES FOR THEIR MANUFACTURE” (APOTEX TECHNOLOGIES INC., priority 2014, published 2015).
Entries after “also recorded” stand apart in the source; their conditions may differ. Values belong to the substance of their own block, whether it stands above or below them.

Columns and labels:
Assay type in all cases: physicochemical
[1] = Speciation plot calculation of solution pH (FIG. 5, from experimentally determined pKas); conditions: according to speciation plot FIG. 5; 0.5 M solution
Source text: A pharmaceutically acceptable salt of a drug substance is one that is chemically stable and can be used in a pharmaceutical composition. Unlike simple aromatic hydrocarbons, thymodepressin is a dipeptide with multi-functional groups. The dipeptide D-isoglutamyl-D-tryptophan has an alpha amine, two carboxylic acids and an indole nitrogen within the same molecule. An ideal salt should be one that has a solution pH close to about 7 and in the low basic pH range. Through investigations in our laboratory, in the search for a novel salt to address the shortcomings of the disodium salt of D-isoglutamyl-D-tryptophan, the speciation plot (FIG. 5) was used to determine salts with ideal solution pH and solubility that are suitable for pharmaceutical formulations. FIG. 5 is a speciation plot of H-D-iGlu-D-Trp-OH from pH 0 to 12 using experimentally determined pKas. In FIG. 5, LH2=H-D-iGlu-D-Trp-OH, LH=mono carboxylic acid salt, L=dicarboxylic acid salt, and LH3=acid addition salt of H-D-iGlu-D-Trp-OH. The X axis provides the pH of the solution, whereas the Y axis reports the amount of the species present at a particular pH. From our practical experience, we use 6 ml of water per gm of H-D-iGlu-D-Trp-OH for isolation purposes, which corresponds to a concentration of 0.5 M solution.
According to the speciation plot calculation shown in FIG. 5, the diacid form has a pH of about 2.7 to about 3 in solution. The metal salt of formula I wherein M is potassium or lithium; the divalent salt of formula II wherein B is calcium or magnesium has a solution pH close to about 7.
We have applied the speciation plot (FIG. 5) to compute the pH range of the salt forms of the dipeptide H-D-iGlu-D-Trp-OH. […] This is particular ideal for liquid formulation, sublingual tablets, nasal drops and sprays.

[2] = Percent crystallinity by X-ray powder diffraction
Source text: The overall crystallinity measured by means of the XRPD technique provides additional helpful information for pharmaceutical materials that contain some amorphous material formed during synthetic procedure. It is also a valuable measure for control of long-term changes in the crystalline materials. Although not related to any structural and compositional features, the measured “percent crystallinity” may be a good indicator for the stability of a particular material as a function of time.
The percent crystallinity is commonly measured as a ratio between the diffraction portion from the crystalline part of the sample, IC, and the total diffraction from the same sample, IC+B. The values of CC can be obtained after an appropriate subtraction of the scattering portion from the background, IB.
For such kind of analyses, the diffraction is measured as total area under the profile of: • the whole pattern as it is collected (one may correct for the air scattering)—ITOTAL. • the peaks only (IC) after subtraction of the background (correction for the air scattering), • the background only with correction for air scattering—(IB).
However, in this study, due to the technical problems with the D5000 point-detector diffraction system, all the samples were analyzed on a D8 system, equipped with an area, 2D detector, and the above-mentioned approach could not be applied. Therefore, another technique has been developed for measuring the crystallinity of samples analyzed on such system. Only a narrow part of the 2D diffraction image is chosen with a single peak at the centre and a neighbour area where the background will be measured.
All samples were measured for calculation of their crystallinity using a narrow range of 21°-25° with a strongest reflection at […]. The background was subtracted as linear, and an empirical correlation coefficient of 2.5 was applied.

[3] = Hygroscopicity of the solid salt in air (laboratory observation); conditions: solid (freeze-dried / amorphous) salt

Substance: calcium salt of D-isoglutamyl-D-tryptophan (1:2) [Example 7]
pH in solution [1]: about 7
% crystallinity ([2]; XRPD, D8 system with 2D detector, not absolute values, listed as Example 8): 18-20%
% crystallinity ([2]; XRPD, D8 system with 2D detector, not absolute values, listed as H-D-iGlu-D-Trp-OH calcium (2:1)): less than 67%
% crystallinity ([2]; XRPD, D8 system with 2D detector; not absolute values; listed as calcium salt of thymodepressin [1:2)): ≤ 67%

pH in solution [1]: above 9.0
Substance: disodium salt of D-isoglutamyl-D-tryptophan
hygroscopicity of the solid [3]: extremely hygroscopic turning into a gel in a matter of minutes in air; also recorded: hygroscopic and very difficult to handle
hygroscopicity of the solid ([3]; listed as disodium salt): extremely hygroscopic and very difficult to weigh

Substance: lithium salt of D-isoglutamyl-D-tryptophan (1:1) [Example 3A]
pH in solution [1]: about 7

Substance: magnesium salt of D-isoglutamyl-D-tryptophan (1:2) [Example 5]
pH in solution [1]: about 7

Substance: potassium salt of D-isoglutamyl-D-tryptophan (1:1) [Example 1]
pH in solution [1]: about 7
